What follows are compounds tested on HL60 cells (assay: Anti-proliferation on HL60 cells (CellTiter-Glo, 3 days)). Conditions: Homo sapiens, HL-60, 72 h, 3 days incubation, CTG luminescence, IC50 by XLfit, read-out: HL60 cells Proliferation inhibitory activity.
Format: cell-based
Description: HL60 cells (Cell Bank of Chinese Academy of Sciences) in the logarithmic growth phase were counted and plated evenly in a 96-well transparent bottom white plate at 20000 cells per well and 100 μL per well.
A certain amount of the compound of the present invention was weighed and diluted with DMSO to a 10 mM stock solution. The culture medium RPMI-1640 (meilunbio, MA0215) corresponding to the cells were taken, and the compound was diluted to the concentration required by the test, shaken gently and mixed evenly. 50 μL of the gradient dilution of the diluted compound was added to each well of the plated cells, and 50 μL of 0.1% DMSO was added to the control group. The plate was shaken gently, mixed evenly and incubated in a cell culture incubator for 3 days.
• 3.1 The CellTiter-Glo™ (CTG) (purchased from Promega, Cat. No. G9242) reagent was taken in advance from the −20° C. refrigerator and equilibrated to room temperature in the dark. Cell Titer-Glo buffer and Cell Titer-Glo substrate were mixed at a ratio of 1:1 to prepare a CTG detection reagent. • 3.2 The 96-well plate was taken out and inspected under a microscope for growth. • 3.3 The bottom of the 96-well plate was tagged with white paper, and then the plate was wrapped with tin foil paper, shaken at 37° C. at 300 r for 10 min and mixed evenly. • 3.4. 50 μL of CTG detection reagent was added to each well, Luminescence signal was detected using a microplate reader Biotek Synergy Hi, and the inhibition rate was calculated. IC50 values of the compounds were calculated by XLfit 5.5.0 software to evaluate the proliferation inhibitory activity on HL60 cells.

Compound | IC50
O=C1CCC(N2Cc3cc(NC(=O)CC4CCN(c5ncc(Br)cn5)CC4)ccc3C2=O)C(=O)N1 (stereo not shown) [Compound A48] | 4.1 nM
O=C1CCC(N2C(=O)c3cccc4c(CNCC5CCN(c6ncc(-c7cccc(F)c7)cc6F)CC5)ccc2c34)C(=O)N1 (stereo not shown) [Compound A175] | 11500 nM
O=C1CCC(N2Cc3cc(C(=O)NCC4CCN(c5ncc(-c6cccc7ccccc67)o5)CC4)ccc3C2=O)C(=O)N1 (stereo not shown) [Compound A27] | 3.7 nM
O=C1CCC(NC(=O)c2ccc(CNCC3CCN(c4ncc(-c5cccc(Cl)c5)cc4C(F)(F)F)CC3)cc2)C(=O)N1 (stereo not shown) [Compound A155] | 825 nM
O=C1CCC(N2Cc3nc(CNCC4CCN(c5ncc(-c6cccc(Cl)c6)cc5C(F)(F)F)CC4)ccc3C2=O)C(=O)N1 (stereo not shown) [Compound A141] | 160 nM
O=C1CCC(N2Cc3cc(OCCC4CCN(c5ncc(-c6cccc(Cl)c6)cc5C(F)(F)F)CC4)ccc3C2=O)C(=O)N1 (stereo not shown) [Compound A133] | 175 nM
O=C1CCC(N2Cc3cc(NC(=O)CC4CCN(CC(=O)N5CCCc6ccccc65)CC4)ccc3C2=O)C(=O)N1 (stereo not shown) [Compound A3] | 7.9 nM
O=C1C[C@@H](N2Cc3cc(CNCC4CCN(c5ncc(-c6cccc(F)c6)cc5C(F)(F)F)CC4)ccc3C2=O)C(=O)N1 [Compound A173] | 9370 nM
CN(C)c1cc(-c2cccc(Cl)c2)cnc1N1CCC(CNCc2ccc3c(c2)CN(C2CCC(=O)NC2=O)C3=O)CC1 (stereo not shown) [Compound A79] | < 0.2 nM
O=C1CCC(N2Cc3cc(C(=O)NCC4CCN(c5ccc(-c6cccc7ccccc67)cn5)CC4)ccc3C2=O)C(=O)N1 (stereo not shown) [Compound A34] | < 0.2 nM
O=C1CCC(NS(=O)(=O)c2ccc(CNCC3CCN(c4ncc(-c5cccc(Cl)c5)cc4C(F)(F)F)CC3)cc2)C(=O)N1 (stereo not shown) [Compound A164] | 7230 nM
O=C1C[C@H](N2Cc3cc(CNCC4CCN(c5ncc(-c6cccc(F)c6)cc5F)CC4)ccc3C2=O)C(=O)N1 [Compound A170] | 9860 nM
O=C1CCC(N2Cc3cc(CNCC4(F)CCN(c5ncc(-c6cccc(Cl)c6)cc5F)CC4)ccc3C2=O)C(=O)N1 (stereo not shown) [Compound A84] | 2.6 nM
COc1cccc(-c2cnc(N3CCC(F)(CNCc4ccc5c(c4)CN(C4CCC(=O)NC4=O)C5=O)CC3)c(F)c2)c1 (stereo not shown) [Compound A120] | 2.47 nM
O=C1CCC(N2Cc3cc(CNCC4CCN(c5ncc(-c6cccc(Cl)c6)cc5C(F)F)CC4)ccc3C2=O)C(=O)N1 (stereo not shown) [Compound A118] | 3.97 nM
O=C1CCC(N2Cc3cc(NC(=O)CC4CCN(c5cnc(-c6cccc7ccccc67)s5)CC4)ccc3C2=O)C(=O)N1 (stereo not shown) [Compound A25] | 0.3 nM
O=C1CCC(N2Cc3cc(NC(=O)CC4CCN(c5ncc(-c6ccncc6)cn5)CC4)ccc3C2=O)C(=O)N1 (stereo not shown) [Compound A60] | 60 nM
O=C1CCC(N2Cc3cc(CNCC4CCN(c5ccc(-c6cccc(Cl)c6)cc5C(F)(F)F)CC4)ccc3C2=O)C(=O)N1 (stereo not shown) [Compound A104] | 20.5 nM
O=C1CCC(N2Cc3cc(NC(=O)CC4CCN(c5ncc(-c6ccccc6Cl)cn5)CC4)ccc3C2=O)C(=O)N1 (stereo not shown) [Compound A54] | < 0.2 nM
O=C1CCC(N2Cc3cc(CNCC4C5CCC4CN(c4ncc(-c6cccc(Cl)c6)cc4C(F)(F)F)C5)ccc3C2=O)C(=O)N1 (stereo not shown) [Compound A91] | 36.1 nM
O=C(CN1CCC(CC(=O)Nc2ccc3c(c2)CN(C2CCC(=O)NC2=O)C3=O)CC1)NCCc1cccc2ccccc12 (stereo not shown) [Compound A10] | 7.4 nM
O=C1CC[C@H](N2Cc3cc(CNCC4(F)CCN(c5ncc(-c6cccc(Cl)c6)cc5C(F)(F)F)CC4)ccc3C2=O)C(=O)N1 [Compound A127] | 6.75 nM
O=C(CN1CCC(CC(=O)Nc2ccc3c(c2)CN(C2CCC(=O)NC2=O)C3=O)CC1)NCc1cccc2ccccc12 (stereo not shown) [Compound A5] | 10 nM

Compound | IC50
O=C1CCC(N2Cc3cc(NC(=O)CC4CCN(CC(=O)Nc5cccc6ccccc56)CC4)ccc3C2=O)C(=O)N1 (stereo not shown) [Compound A9] | 6 nM
COc1cccc(-c2cnc(N3CCC(CNCc4scc5c4CN(C4CCC(=O)NC4=O)C5=O)CC3)c(C(F)(F)F)c2)c1 (stereo not shown) [Compound A144] | 752 nM
O=C1CCC(N2Cc3cc(C(=O)NCC4CCN(c5ncc(-c6cccc7ccccc67)s5)CC4)ccc3C2=O)C(=O)N1 (stereo not shown) [Compound A23] | 0.2 nM
O=C1CCC(N2Cc3cc(NC(=O)CC4CCN(c5ncc(-c6cccc7cccc(F)c67)s5)CC4)ccc3C2=O)C(=O)N1 (stereo not shown) [Compound A26] | < 0.2 nM
O=C1CCC(N2Cc3cc(NC(=O)CC4CCN(c5cnc(-c6cccc7ccccc67)nc5)CC4)ccc3C2=O)C(=O)N1 (stereo not shown) [Compound A33] | 0.3 nM
COc1cc(CNCC2CCN(c3ncc(-c4cccc(Cl)c4)cc3C(F)(F)F)CC2)ccc1C(=O)NC1CCC(=O)NC1=O (stereo not shown) [Compound A161] | 11200 nM
O=C1CCC(n2cc(-c3ccc(CNCC4CCN(c5ncc(-c6cccc(Cl)c6)cc5C(F)(F)F)CC4)cc3)nn2)C(=O)N1 (stereo not shown) [Compound A168] | 109 nM
O=C1CCC(N2Cc3cc(NC(=O)CC4CCN(c5ccc(-c6ccc7ccccc7c6)cn5)CC4)ccc3C2=O)C(=O)N1 (stereo not shown) [Compound A41] | 0.2 nM
N#CC1(CNCc2ccc3c(c2)CN(C2CCC(=O)NC2=O)C3=O)CCN(c2ncc(-c3cccc(Cl)c3)cc2C(F)(F)F)CC1 (stereo not shown) [Compound A89] | 9.2 nM
O=C1C[C@@H](N2Cc3cc(CNCC4CCN(c5ncc(-c6cccc(Cl)c6)cc5C(F)(F)F)CC4)ccc3C2=O)C(=O)N1 [Compound A171] | 1570 nM
O=C1CCC(N2Cc3cc(NC(=O)CC4CCN(c5cccc(-c6cccc7ccccc67)n5)CC4)ccc3C2=O)C(=O)N1 (stereo not shown) [Compound A15] | 1 nM
O=C1CCC(N2Cc3cc(C(=O)NCC4CCN(c5ccc(-c6cccc7ccccc67)nc5)CC4)ccc3C2=O)C(=O)N1 (stereo not shown) [Compound A36] | 0.3 nM
O=C1CC[C@@H](N2Cc3cc(CNCC4(F)CCN(c5ncc(-c6cccc(Cl)c6)cc5C(F)(F)F)CC4)ccc3C2=O)C(=O)N1 [Compound A128] | 9.04 nM
COc1cccc(-c2cnc(N3CCC(F)(C(=O)NCc4ccc5c(c4)CN(C4CCC(=O)NC4=O)C5=O)CC3)c(F)c2)c1 (stereo not shown) [Compound A119] | 1.09 nM
O=C1CCC(N2Cc3cc(NC(=O)CC4CCN(c5ncc(C6CC6)cn5)CC4)ccc3C2=O)C(=O)N1 (stereo not shown) [Compound A49] | 1.5 nM
O=C1CCC(N2Cc3cc(C(=O)NCC4CCN(c5ncc(-c6cccc(Cl)c6)cn5)CC4)ccc3C2=O)C(=O)N1 (stereo not shown) [Compound A52] | 1.4 nM
O=C1CCC(N2Cc3cc(C(=O)NCC4CCN(c5ccc(-c6ccc7ccccc7c6)cn5)CC4)ccc3C2=O)C(=O)N1 (stereo not shown) [Compound A40] | 4.3 nM
O=C1CCC(N2Cc3cc(NC(=O)CC4CCN(c5ccc(-c6nccc7ccccc67)cn5)CC4)ccc3C2=O)C(=O)N1 (stereo not shown) [Compound A46] | < 0.2 nM
O=C(CN1CCC(CNC(=O)c2ccc3c(c2)CN(C2CCC(=O)NC2=O)C3=O)CC1)NCCn1c2ccccc2c2cccnc21 (stereo not shown) [Compound A7] | 94 nM
O=C(CN1CCC(CC(=O)Nc2ccc3c(c2)CN(C2CCC(=O)NC2=O)C3=O)CC1)NCCn1c2ccccc2c2cccnc21 (stereo not shown) [Compound A8] | 14 nM
O=C1CCC(c2coc3ccc(CNCC4CCN(c5ncc(-c6cccc(Cl)c6)cc5C(F)(F)F)CC4)cc23)C(=O)N1 (stereo not shown) [Compound A150] | 3360 nM
O=C1CCC(N2Cc3cc(C(=O)NCC4CCN(c5cccc(-c6cccc7ccccc67)n5)CC4)ccc3C2=O)C(=O)N1 (stereo not shown) [Compound A14] | 0.9 nM
O=C(CN1CCC(CNC(=O)c2ccc3c(c2)CN(C2CCC(=O)NC2=O)C3=O)CC1)NCc1cccc2ccccc12 (stereo not shown) [Compound A6] | 192 nM

Source: US20250059162A1, “MULTI-PROTEIN DEGRADATION AGENT HAVING IMIDE SKELETON” (SUZHOU KINTOR PHARMACEUTICALS, INC., priority 2021, published 2025)
